Reference: patent publication US20170360747A1, “USE OF ZILEUTON FOR THE TREATMENT OF NASAL POLYPS IN CYSTIC FIBROSIS PATIENTS” (CORNERSTONE THERAPEUTICS INC., priority 2011, published 2017)

How the values were obtained:
[1] = tested on: coughing in patient with cystic fibrosis and chronic sinusitis; test: Case report Example 2: cystic fibrosis patient with chronic sinusitis and coughing; format: in vivo, human
Method: Patient failed medical treatment, so they underwent endoscopic sinus surgery. Patient's sinus culture has grown MRSA and Pseudomonas. Patient initially did well after the surgery but was readmitted for pulmonary exacerbation. […] Patient was treated with ciprofloxacin for Pseudomonas. […] Nasal endoscopy was not performed in the child due to their young age. The patient was then treated with zileuton 600 mg BID after a normal liver function test. Patient's coughing improved with the zileuton treatment.

[2] = tested on: nasal polyposis in patient with cystic fibrosis; test: Case report Example 1: cystic fibrosis patient with bilateral nasal polyposis; format: in vivo, human
Method: A patient has a history of cystic fibrosis and chronic sinusitis. The patient complained of hyposmia and nasal congestion. […] Culture of the sinuses grew out Pseudomonas. Patient was prescribed ciprofloxacin per the sinus culture. […] Prior to prescribing oral zileuton, a liver function test was performed that was normal. Patient was given zileuton 1200 mg BID. Two months later patient came back with improved nasal congestion and smell. […] Since the patient's symptoms improved, the zileuton was eventually discontinued. After a few months the patient's sinus infection returned. Patient was placed on oral ciprofloxacin.

5-lipoxygenase = biological target: T1, 5-lipoxygenase (Homo sapiens, UniProt P09917); conditions: statement 'recently been found', no data given; cited from earlier work
T1 sequence (P09917 1-674): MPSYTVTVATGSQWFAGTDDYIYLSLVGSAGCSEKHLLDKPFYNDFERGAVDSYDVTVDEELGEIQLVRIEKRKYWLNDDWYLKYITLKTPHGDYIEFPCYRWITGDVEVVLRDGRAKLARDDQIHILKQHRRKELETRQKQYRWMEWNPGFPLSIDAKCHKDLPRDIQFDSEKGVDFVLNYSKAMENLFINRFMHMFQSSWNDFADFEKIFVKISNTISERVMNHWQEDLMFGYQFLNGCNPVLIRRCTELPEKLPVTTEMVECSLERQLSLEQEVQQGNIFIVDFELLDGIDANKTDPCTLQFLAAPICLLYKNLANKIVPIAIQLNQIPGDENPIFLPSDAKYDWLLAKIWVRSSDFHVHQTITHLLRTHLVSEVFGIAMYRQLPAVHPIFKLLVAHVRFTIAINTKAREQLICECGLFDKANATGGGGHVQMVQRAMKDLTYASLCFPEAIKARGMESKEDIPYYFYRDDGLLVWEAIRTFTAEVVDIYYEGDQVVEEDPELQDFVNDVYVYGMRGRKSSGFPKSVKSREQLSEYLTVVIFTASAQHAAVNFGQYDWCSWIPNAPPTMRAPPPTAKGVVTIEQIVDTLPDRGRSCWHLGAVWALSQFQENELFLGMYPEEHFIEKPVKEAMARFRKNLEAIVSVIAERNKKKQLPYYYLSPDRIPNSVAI

[3] = zileuton 1200 mg BID oral, two months later, one patient
[4] = treatments given before zileuton (ciprofloxacin for Pseudomonas; inhaled dornase alfa)

CC(c1cc2ccccc2s1)N(O)C(N)=O (racemic) [zileuton, (±)-1-(1-Benzo[b]thien-2-ylethyl)-1-hydroxyurea]
coughing ([1]; zileuton 600 mg BID, one patient): improved
nasal congestion and smell [2, 3]: improved
nasal endoscopy: polyps [2, 3]: decreased polyps
nasal endoscopy: purulence ([2]; zileuton 1200 mg BID oral, two months later, prescribed ciprofloxacin not taken): no purulence
adverse effect: coughing ([2]; zileuton 1200 mg BID, dose then decreased to 600 mg BID): increased coughing

C[C@H](c1cc2ccccc2s1)N(O)C(N)=O [(R)-zileuton]
efficacy in inhibiting 5-lipoxygenase activity, compared between enantiomers and racemate (5-lipoxygenase): more efficacious than either of (S)-zileuton and racemic zileuton

O=C(O)c1cn(C2CC2)c2cc(N3CCNCC3)c(F)cc2c1=O [ciprofloxacin]
coughing [1, 4]: initially improved but gradually returned
nasal symptoms after return of sinus infection ([2]; oral ciprofloxacin, after zileuton was discontinued): initial improvement but eventually had return of their nasal symptoms

B1: dornase alfa (protein, UniProt P24855 23-282, looked up)
Deoxyribonuclease-1: LKIAAFNIQTFGETKMSNATLVSYIVQILSRYDIALVQEVRDSHLTAVGKLLDNLNQDAPDTYHYVVSEPLGRNSYKERYLFVYRPDQVSAVDSYYYDDGCEPCGNDTFNREPAIVRFFSRFTEVREFAIVPLHAAPGDAVAEIDALYDVYLDVQEKWGLEDVMLMGDFNAGCSYVRPSQWSSIRLWTSPTFQWLIPDSADTTATPTHCAYDRIVVAGMLLRGAVVPDSALPFNFQAAYGLSDQLAQAISDHYPVEVMLK
notes: inhaled dornase alfa, part of aggressive medical treatment
coughing [1, 4]: continued to have coughing
